In article PMC6305398, “Red Fluorescent Chlamydia trachomatis Applied to Live Cell Imaging and Screening for Antibacterial Agents” (Frontiers in Microbiology, 2018):
Entries after “also recorded” stand apart in the source; their conditions may differ. Like-named read-outs stand apart in the source and are kept apart here.

Columns and labels:
[1] = tested on: mCherry expressing C. trachomatis serovar L2 454/Bu; assay: Primary screen of natural compound library, Chlamydia inclusion count (mCherry imaging and FITC immunostaining in duplicate plates); format: cell-based, Chlamydia trachomatis; settings: Chlamydia trachomatis, 10 μM, 48 hpi, HeLa cells, vs DMSO control
Description: A general and more detailed protocol for the screening assay is provided in (Supplementary Data Sheet 1) and an overview of the screening method is given in Figure 3. Since inhalation of C. trachomatis aerosols can cause laboratory acquired infections (Sewell, [1995]), all procedures involving handling of live infection in open plates were performed manually inside a class II safety cabinet using 8-channel electronic pipets (Rainin E4 XLS, Mettler Toledo, Barcelona, Spain) and an enclosed aspiration system (Intergra VacuSafe, Zizers, Switzerland).
The primary screen of the 349 open access compound library was performed using the mCherry expressing C. trachomatis serovar L2 454/Bu in clear, flat 96-well plates (Nunc, Delta surface, Thermo Fischer Scientific). The primary screen was done in duplicates in separated plates; one plate was used for mCherry imaging and the other for FITC immunostaining. Cells were seeded at a density of 10,000 cells per well in 100 μl DMEM media 1 day prior to infection in culture media. Chlamydia infection was performed in 30 μl HBSS as described above with a MOI of 0.6 during 1 h at 37°C, 5% CO2. Compounds were diluted to 10 μM in DMEM with a final DMSO concentration of 0.5% and 100 μl per well was added after aspiration of HBSS. The plates were incubated for an additional 47 h at 37°C, 5% CO2 prior to imaging. One of the duplicate plates was used for mCherry imaging and one for FITC immunostaining. For mCherry imaging, HeLa cell nuclei were first stained by addition of 10 μl […] Hoechst per well and incubated at 37°C with 5% CO2 for 20 min. The infected cells were fixed in 4% paraformaldehyde (PFA) for 15 min and washed in PBS before image acquisition. Although fixation was not necessary for the analysis, it inactivated the infectious Chlamydia and enabled later analysis after storage at 4°C. For FITC immunostaining, cells were fixed in 150 μl methanol per well for 10 min, blocked in 1% BSA, 0.25% Tween-20 in PBS and incubated with 1:1,000 polyclonal rabbit anti-chlamydial serum in blocking buffer (Marwaha et al., [2014]). A FITC-conjugated donkey anti-rabbit antibody (Jackson ImmunoResearch) and 1 μg/ml Hoechst staining was used for staining followed by washing with blocking buffer. Images of nuclei (Hoechst-ex386/23 nm) and Chlamydia inclusions (FITC: ex485/20 nm; mCherry: ex549/15 nm) were acquired in the ArrayScan with the 10x objective and counted with the built in software. Chlamydia inclusions in DMSO control wells were used to determine an inclusion size cutoff to exclude small underdeveloped inclusions as well as fluorescent artifacts from the analyses.

[2] = in vitro; format: cell-based; settings: human, 48 h, percent of DMSO control; for viability at 25 µM: read-out: HeLa cell viability at 25 μM (%); for viability at 50 µM: read-out: HeLa cell viability at 50 μM (%) (converted)
Description: (§1) HeLa299 cells were inoculated into clear, flat 96-well plates (Nunc, Delta surface, Thermo Fischer Scientific) with a density of 7,000 cells per well and cultured overnight at 37°C with 5% CO2 in […] supplemented with 10% FBS and 2 mM L-glutamine. The following day, the RPMI was replaced with DMEM without phenol red (Life Technologies, Carlsbad, CA, USA) containing 0.5% DMSO with or without test compounds at 25 and 50 μM concentrations incubated at 37°C with 5% CO2 for 48 h. At least three replicate wells for each compound concentration were tested. Wells without cells were used as blank controls. Following this incubation with compounds, cells were washed with DMEM to remove remaining colored compounds and fresh DMEM without phenol red was added before the XTT Cell Proliferation Assay kit was used according to the manufacturer's instructions (ATCC, Manassas, VA, USA). Briefly, activation reagent and XTT reagent were thawed at 37°C, then mixed in a 1:50 ratio with enough volume to add 50 μL to each well. The plates were placed in the 37°C incubator for 2.5 h. The absorbance of each well was then read at 475 nm and 660 nm with a Tecan Infinite m200 plate reader (Tecan, Männedorf, Switzerland). To analyze the data, the 660 nm reading was subtracted from the 475 nm reading to help eliminate non-specific readings from the assay results. Average blank control-well readings were subtracted from those containing cells. Final readings from wells containing compound were compared to DMSO control wells and expressed as percent of control.

[3] = tested on: HeLa cells; assay: in vitro; format: cell-based; settings: non-toxic = viability not below 70% of vehicle control at 25 μM
Description: as §1

[4] = tested on: wt C. trachomatis; assay: EC50 determination, large inclusion count in infected HeLa cells, FITC immunostaining; format: cell-based, Chlamydia trachomatis; settings: wt strain, 44-48 h; for EC50: Chlamydia trachomatis, read-out: EC50 (95% confidence values)
Description: (§2) HeLa cells were inoculated into 96-well plates (Nunc, Corning, New York, USA) with a density of 15,000 cells per well and cultured overnight at 37°C with 5% CO2 in RPMI 1640, supplemented with 10% FBS and 2 mM L-glutamine, and infected the following day with wt or mCherry C. trachomatis in HBSS. At 1 hpi, the inoculum was replaced with RPMI media containing 0.5% DMSO and serial 1:2 dilutions of the tested compounds. The infection was allowed to proceed for 44–48 h before fixation by aspiration of the media and adding methanol for 5 min. Chlamydia inclusions were immunostained as described above. The numbers of large inclusions were counted by the ArrayScan VTI HCS automated scanner. Inhibition of Chlamydia growth was evaluated as the number of inclusions in compound treated infections (evaluated in 12 fields per well, 20x objective) compared to the numbers of inclusions in DMSO treated control infections (% of control). EC50 values are representative of at least three independent experiments. The data analysis was performed using non-linear regression (curve fit) in GraphPad Prism v.5.

[5] = tested on: mCherry expressing C. trachomatis; assay: as above; format: cell-based; settings: Chlamydia trachomatis, read-out: EC50 (95% confidence values)
Description: as §2

[6] = tested on: mCherry transformed C. trachomatis; assay: Live real time imaging of C. trachomatis infection (time-lapse 24-72 hpi); format: cell-based, Chlamydia trachomatis; settings: HeLa cells
Description: The anti-chlamydial effect over time of compound 6 (identified in the above screen) was visualized by a time-lapse experiment. HeLa cells were seeded at a concentration of 10,000 cells per well 1 day prior to infection. Chlamydia infection was performed as described above at MOI 0.6 with mCherry transformed C. trachomatis. Phenol red free DMEM culture media containing 6 or 3 μM 6 or 0.5% DMSO was added at 100 μl per well 1 hpi. Images were acquired with 1 h intervals with the 10x objective acquiring 4 fields per well during 48 h. The red channel was used for autofocusing and therefore imaging was initialized 24 hpi when the mCherry expressing inclusions were detectable, continuing to 72 hpi.

[7] = ref Davis et al., 2013; cited from earlier work
[8] = tested on: mammalian cells; settings: ref Davis et al., 2013; cited from earlier work
[9] = tested on: wt C. trachomatis; assay: Doxycycline susceptibility, large inclusion count after immunostaining; format: cell-based; settings: Chlamydia trachomatis; wt strain, HeLa cells, 48 h, FITC immunostaining; read-out: EC50 with 95% confidence interval
[10] = tested on: mCherry expressing C. trachomatis; assay: Doxycycline susceptibility, large inclusion count by live mCherry imaging; format: cell-based; settings: Chlamydia trachomatis, HeLa, 48 h, read-out: EC50 with 95% confidence interval
Description: HeLa 299 cells, cultured to 70% confluence were harvested and seeded into 96-well plates (clear, flat, Nunclon Delta coated, Nunc, Thermo Fischer Scientific, Waltham, MA, USA) at a density of 10,000 per well in culture media (DMEM or RPMI 1640 supplemented with 10% FBS, 2 mM L-glutamine and 50 μg/ml gentamicin). After overnight incubation in 37°C with 5% CO2, adherent cells were infected with 30 μl mCherry expressing Chlamydia per well in HBSS with a multiplicity of infection (MOI) of 0.6. Chlamydia were incubated with the cells for 1 h at 37°C with 5% CO2 after which HBSS was removed and replaced with 100 μl culture media. DNA of host cell nuclei and Chlamydia inclusions were visualized by addition of 10 μl 10 μg/ml Hoechst 20 min prior to imaging. Live images were acquired 48 hpi in an automated HCS microscope (ArrayScan VTI, Thermo Fischer Scientific) using the 10x objective, excitation 549/15 nm for mCherry and excitation 386/23 nm for Hoechst. The number of large Chlamydia inclusions was enumerated using the built in software. An inclusion size cutoff was determined based on the 48 hpi Chlamydia inclusions to include normally developed Chlamydia inclusions and exclude fluorescent artifacts from the analyses. […] Large inclusions were counted by Arrayscan and EC50 values determined using GraphPad Prism v.5 (GraphPad software, La Jolla, CA, USA) with non-linear regression.

[11] = MOI 0.6, FITC immunostaining, read-out: Screen inhibition at 10 μM (%) FITC
[12] = MOI 0.6, mCherry detection, read-out: Screen inhibition at 10 μM (%) mCherry

Compound	inhibition at 10 µM [1, 11]	inhibition at 10 µM [1, 12]	viability at 25 µM [2]	viability at 50 µM [2]	Toxicity to HeLa cells (authors' call) [3]	EC50 [4]	EC50 [5]	Growth of red fluorescent Chlamydia inclusions in live imaging ([6]; 3 μM, compared to DMSO control)	Red fluorescent Chlamydia inclusions in live imaging ([6]; 6 μM)	In vitro antimalarial effect, active concentrations [7]	Toxicity in mammalian cells [8]	EC50 [9]	EC50 [10]	EC50 (95% confidence values) [4]
CC(=O)NCCc1c[nH]c2c1C(=O)C1=C(NC=CS1(=O)=O)C2=O [Compound 7]	100%	99%	17 ± 2%	6%	toxic									
C[C@]1(O)Cc2c(O)c3c(c(O)c2[C@@H](O)C1)C(=O)C=C(NCCc1ccc(O)cc1)C3=O [Compound 3]	100%		41 ± 2.5%	24%	toxic									
CC(C)(C)NC(=O)NCCc1c[nH]c2c1C(=O)C1=C(NC=CS1(=O)=O)C2=O [Compound 8]	100%	100%	30 ± 7%	11%	toxic									
C[C@]1(O)Cc2c(O)c3c(c(O)c2[C@@H](O)C1)C(=O)C=C(NCCc1ccccc1)C3=O [Compound 2]	100%	66%	≥ 70%	31%	non-toxic	23000 nM								
NCCc1c[nH]c2c1C(=O)C1=C(NCCS1(=O)=O)C2=O [Compound 6]	100%	100%	77 ± 0.2%	55%	non-toxic	2800 nM	1700 nM	grew at a slower pace; also recorded: continuous growth reduction	not detectable	low nanomolar concentrations	non-toxic			
CCCCNC(=O)NCCc1c[nH]c2c1C(=O)C1=C(NC=CS1(=O)=O)C2=O [Compound 9]	100%	100%	37 ± 6.5%	11.5%	toxic									
C[C@H]1c2cccc(O)c2C(=O)C2=C(O)[C@]3(O)C(=O)C(C(N)=O)=C(O)[C@@H](N(C)C)[C@@H]3[C@@H](O)[C@@H]21 [doxycycline]												54.4 nM	32.8 nM	
C[C@]1(O)Cc2c(O)c3c(c(O)c2[C@@H](O)C1)C(=O)C=C(NCCN1CCOCC1)C3=O [Compound 4]	100%	98%	≥ 70%	74%	non-toxic	20800 nM								
COCCNC1=CC(=O)c2c(O)c3c(c(O)c2C1=O)C[C@](C)(O)C[C@@H]3O [Compound 1]	100%	100%		58.5%	non-toxic	5300 nM	2800 nM							low micromolar
